# Assay results published in the supplement of paper PMC10307832.
# Tests used:
# Test in all cases: relative viability (nuclei count vs DMSO), 5 days (fraction); higher = more cells survive
# Irinotecan + Palbociclib = compound: CCc1c2c(nc3ccc(OC(=O)N4CCC(N5CCCCC5)CC4)cc13)-c1cc3c(c(=O)n1C2)COC(=O)[C@]3(O)CC [Irinotecan] + CC(=O)c1c(C)c2cnc(Nc3ccc(N4CCNCC4)cn3)nc2n(C2CCCC2)c1=O [Palbociclib] (partner 0.5 µM)
# Outline: (§1)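 Five library-drug doses in √10 steps were combined with a fixed anchor-drug dose, or a single drug was given alone, by pin tool to lung cancer cell lines in 1536-well plates the day after seeding. Nuclei were stained and counted after 5 days. Relative viability is the nuclei count in treated wells over that in vehicle wells, taken as the median of duplicate plates.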
# MK-8033 + Pemetrexed = compound: Cn1cc(-c2cnc3ccc4ccc(CS(=O)(=O)NCc5ccccn5)cc4c(=O)c3c2)cn1 [MK-8033] + Nc1nc2[nH]cc(CCc3ccc(C(=O)N[C@@H](CCC(=O)O)C(=O)O)cc3)c2c(=O)[nH]1 [Pemetrexed] (partner 0.2 µM)
# Outline: as §1
# RU-SKI 43 + Bortezomib = compound: CC[C@@H](C)CNCC(=O)N1CCC2=C([C@@H]1COC3=CC=CC(=C3)C)C=CS2 [RU-SKI 43] + CC(C)C[C@H](NC(=O)[C@H](Cc1ccccc1)NC(=O)c1cnccn1)B(O)O [Bortezomib] (partner 0.002 µM)
# Outline: as §1
# RU-SKI 43 + Linsitinib = compound: CC[C@@H](C)CNCC(=O)N1CCC2=C([C@@H]1COC3=CC=CC(=C3)C)C=CS2 [RU-SKI 43] + C[C@]1(O)C[C@@H](c2nc(-c3ccc4ccc(-c5ccccc5)nc4c3)c3c(N)nccn32)C1 [Linsitinib] (partner 1 µM)
# Outline: as §1
Cell Line,relative viability (Irinotecan + Palbociclib; first compound 0.6325 µM),relative viability (Irinotecan + Palbociclib; first compound 2 µM),relative viability (Irinotecan + Palbociclib; first compound 6.325 µM),relative viability (Irinotecan + Palbociclib; first compound 20 µM),relative viability (MK-8033 + Pemetrexed; first compound 0.02 µM),relative viability (MK-8033 + Pemetrexed; first compound 0.06325 µM),relative viability (MK-8033 + Pemetrexed; first compound 0.2 µM),relative viability (MK-8033 + Pemetrexed; first compound 0.6325 µM),relative viability (MK-8033 + Pemetrexed; first compound 2 µM),relative viability (RU-SKI 43 + Bortezomib; first compound 0.1 µM),relative viability (RU-SKI 43 + Bortezomib; first compound 0.3162 µM),relative viability (RU-SKI 43 + Bortezomib; first compound 1 µM),relative viability (RU-SKI 43 + Bortezomib; first compound 3.162 µM),relative viability (RU-SKI 43 + Bortezomib; first compound 10 µM),relative viability (RU-SKI 43 + Linsitinib; first compound 0.1 µM),relative viability (RU-SKI 43 + Linsitinib; first compound 0.3162 µM),relative viability (RU-SKI 43 + Linsitinib; first compound 1 µM),relative viability (RU-SKI 43 + Linsitinib; first compound 3.162 µM),relative viability (RU-SKI 43 + Linsitinib; first compound 10 µM)
NCI-H1666,0.59,0.559,0.577,0.438,0.784,0.775,0.915,0.788,0.772,0.704,0.84,0.702,0.719,0.534,0.854,0.916,0.8,0.714,0.568
HARA,0.26,0.184,0.225,0.232,0.289,0.212,0.227,0.264,0.229,1.22,1.19,1.13,1.18,1.14,1.03,1.02,1.09,1.05,0.851
NCI-H661,0.397,0.435,0.457,0.142,0.907,0.867,0.876,0.909,0.905,0.776,0.704,0.835,0.943,0.764,0.433,0.645,0.557,0.518,0.651
NCI-H2087,0.192,0.219,0.174,0.204,0.622,0.714,0.629,0.578,0.674,0.759,0.942,0.996,0.735,0.925,1.04,1.08,0.95,0.853,1.02
LC-2-ad,0.407,0.371,0.316,0.251,0.298,0.273,0.264,0.268,0.276,1.03,1.21,1.06,1.1,0.867,0.818,0.831,0.899,0.857,0.726
NCI-H2405,,0.547,0.305,0.143,1.04,1.01,0.963,1.06,1.11,0.957,1.03,1.02,0.936,0.773,0.866,0.941,0.732,0.857,0.808
HCC-44,0.841,0.631,0.484,0.532,0.672,0.695,0.681,0.691,0.603,0.918,0.864,1,0.849,0.852,0.595,0.647,0.835,0.69,0.645
NCI-H3122,0.155,0.114,0.16,0.126,0.201,0.201,0.195,0.188,0.198,1.06,0.924,0.993,1.02,0.978,0.992,1.05,1.09,1.12,1.08
LU99A,0.173,0.179,0.153,0.172,0.192,0.183,0.158,0.168,0.187,1.08,1.3,1.15,1.23,1.03,0.484,0.596,0.58,0.597,0.505
ABC-1,,0.628,0.506,0.358,,,,,,0.286,0.351,0.35,0.285,0.312,0.924,0.775,0.801,0.569,0.845
H3255,0.304,0.301,0.292,0.336,0.56,0.49,0.571,0.582,0.565,0.906,0.751,1.23,0.652,0.754,0.913,0.926,0.943,1.09,0.891
HCC-827,0.438,0.304,0.167,0.206,0.232,,0.257,0.267,0.243,0.989,1.07,1.18,1.11,1.02,0.96,0.936,1.04,1.02,0.734
NCI-H1734,,0.256,0.193,0.373,0.423,0.403,0.393,0.398,0.431,0.971,1.08,0.917,0.824,0.789,0.905,0.818,0.918,0.934,0.791
EBC-1,,,,,,,,,,0.469,0.428,0.652,0.451,0.382,1.04,0.936,0.847,0.956,0.827
NCI-H838,0.261,0.25,0.207,0.171,0.249,0.246,0.227,0.27,0.22,0.718,0.955,0.912,0.748,0.992,1.05,1.22,1.07,1,1
NCI-H1437,0.319,0.337,0.301,0.258,0.295,0.281,0.308,0.319,0.308,0.581,0.594,0.637,0.629,0.526,1.13,1.26,1.15,1.04,0.91
NCI-H1915,0.224,0.182,0.137,0.121,0.51,0.491,0.497,0.472,0.428,1.05,1.39,1.1,0.959,1.02,1.11,1.18,1.23,1.11,1.11
SK-MES-1,0.354,0.342,0.291,0.175,0.986,0.949,0.904,0.892,0.853,,,,,,1.03,1.1,1.18,1.04,1.01
NCI-H2342,0.557,0.486,0.509,0.495,0.729,0.805,0.773,0.814,0.752,,,,,,,,,,
NCI-H1299,,,,,,,,,,0.985,1.04,1.06,1.05,1.02,1.03,1.2,1.1,1.04,0.965
NCI-H1650,0.184,0.305,0.285,0.101,0.429,0.332,0.457,0.39,0.336,0.204,0.208,0.222,0.209,0.192,,,,,

Cell Line,relative viability (Irinotecan + Palbociclib; first compound 0.6325 µM),relative viability (Irinotecan + Palbociclib; first compound 2 µM),relative viability (Irinotecan + Palbociclib; first compound 6.325 µM),relative viability (Irinotecan + Palbociclib; first compound 20 µM),relative viability (MK-8033 + Pemetrexed; first compound 0.02 µM),relative viability (MK-8033 + Pemetrexed; first compound 0.06325 µM),relative viability (MK-8033 + Pemetrexed; first compound 0.2 µM),relative viability (MK-8033 + Pemetrexed; first compound 0.6325 µM),relative viability (MK-8033 + Pemetrexed; first compound 2 µM),relative viability (RU-SKI 43 + Bortezomib; first compound 0.1 µM),relative viability (RU-SKI 43 + Bortezomib; first compound 0.3162 µM),relative viability (RU-SKI 43 + Bortezomib; first compound 1 µM),relative viability (RU-SKI 43 + Bortezomib; first compound 3.162 µM),relative viability (RU-SKI 43 + Bortezomib; first compound 10 µM),relative viability (RU-SKI 43 + Linsitinib; first compound 0.1 µM),relative viability (RU-SKI 43 + Linsitinib; first compound 0.3162 µM),relative viability (RU-SKI 43 + Linsitinib; first compound 1 µM),relative viability (RU-SKI 43 + Linsitinib; first compound 3.162 µM),relative viability (RU-SKI 43 + Linsitinib; first compound 10 µM)
NCI-H647,0.311,0.31,0.136,0.0705,0.199,0.166,0.165,0.185,0.172,0.956,0.841,1.08,1.25,1.14,1.15,1.56,1.38,1.47,0.982
NCI-H1944,0.227,0.173,0.179,0.17,0.703,0.478,0.676,0.583,0.613,,,,,,1.24,1.2,1.34,1.24,1.15
NCI-H23,0.446,0.332,0.249,0.254,0.632,0.517,0.512,,0.497,0.968,1.16,0.958,1.36,0.899,0.646,0.541,0.652,0.724,0.572
NCI-H1792,0.63,0.555,0.435,0.254,0.789,0.64,0.62,0.69,0.872,0.961,1.29,1.31,1.03,0.941,0.46,0.601,0.596,0.585,0.538
HCC-78,0.474,0.363,0.37,0.347,0.936,0.923,0.928,0.587,0.851,0.505,0.495,0.484,0.471,0.427,0.576,0.551,0.712,0.344,0.551
NCI-H358,0.123,0.143,0.108,0.0947,0.165,0.181,0.158,0.167,0.164,,,,,,0.706,0.781,0.819,0.933,0.687
NCI-H1648,0.254,0.303,0.346,0.355,0.733,,0.538,0.81,0.835,,,,,,,,,,
NCI-H1703,,,,,,,,,,0.345,0.227,0.371,0.282,0.227,0.653,1.02,0.545,0.636,0.503
NCI-H1563,,,,,0.736,0.695,0.738,0.69,0.794,0.882,0.828,0.888,0.797,0.797,1.2,1.2,1.11,1.09,1.13
Calu-6,,,,,,,,,,1.1,0.966,1.04,1.1,0.974,0.942,1.05,0.999,0.929,1.02
ChaGo-K-1,0.256,0.247,0.22,0.203,0.251,0.223,0.253,0.267,0.262,1.39,1.14,1.29,0.84,0.939,,,,,
IA-LM,,,,,,,,,,0.798,0.759,1.12,0.912,0.745,0.623,0.563,0.512,0.552,0.577
NCI-H522,0.872,0.585,0.413,0.475,1.07,0.967,0.941,0.891,1.04,,,,,,,,,,
SW 900,,0.42,0.274,0.416,0.489,0.401,0.47,0.507,0.463,,,,,,,,,,
LK-2,0.594,0.72,0.227,0.245,0.329,0.263,0.239,0.335,0.258,,,,,,0.74,0.564,0.674,0.495,0.889
NCI-H1793,,0.222,0.203,0.265,0.682,,0.725,0.739,0.729,,,,,,0.98,0.959,0.988,0.928,0.809
NCI-H2170,0.356,0.248,0.159,0.143,0.275,0.266,0.299,0.257,0.26,,,,,,,,,,
NCI-H596,,,,,0.463,0.436,0.489,0.506,0.53,1.32,0.93,1.34,0.936,1.1,1.14,1.07,1.08,1.02,0.96
A549,,,,,,,,,,,,,,,0.73,0.762,0.656,0.596,0.613
NCI-H727,0.665,0.412,0.52,0.653,,,,,,1,1.14,0.834,0.839,0.802,0.31,0.244,0.335,0.223,0.242
NCI-H1395,,0.572,0.476,0.284,0.921,0.758,0.693,0.914,0.815,,,,,,0.994,1.43,1.1,0.968,1.15
